We go through eight molecules from article PMC6677754, “In silico design and optimization of selective membranolytic anticancer peptides” (Scientific Reports, 2019).

The test system of data set [1] is human erythrocytes. Briefly: Hemolysis assay. The format is cell-based. The note with it: red cells of human, 1 h. On the procedure:
Human erythrocytes were freshly ordered at the Blutspende Zürich. Erythrocytes were washed 3 times with a […] phosphate buffered saline (PBS, Gibco, Thermo Fisher Scientific, Waltham, MA, USA) solution centrifuging at 800 g for 10 min or until the supernatant appeared clear to remove the blood plasma. A 5% v/v erythrocytes : PBS solution was prepared for direct use. For HC50 determination, peptides were dissolved in PBS at an intermediate concentration of 1 mM. A dilution series of the peptide from 200 to 6.25 μM was plated in a round-bottomed 96-well plate in triplicates, with a volume of 50 μL per well. PBS buffer and a solution of 0.1% Triton-X-100 (Fisher Chemical, Loughborough, UK) in PBS were employed as negative and positive controls, respectively. 50 μL of the 5% erythrocyte solution were added in each well and the plates were incubated at 37°C for 1 h. After this time, 100 μL PBS were added to each well and plates were centrifuged at 800 g for 10 min. 100 μL of the supernatant were transferred to a flat-bottomed 96-well plate and the absorbance was measured at 540 nm in a Tecan Infinity M1000 spectrophotometer plate reader. The hemolysis percentage was calculated, considering the absorbance values of the Triton and PBS wells as 100% and 0% hemolysis, respectively.
The resultant sigmoidal curves were analyzed with the drc22 R package using a log-logistic model with 3 fixed parameters to obtain the HC50 values. […]
NCI-60 screening procedure […]
Each peptide was tested in a 5-concentration assay, starting at 10^-4 M and diluting 10-fold to the lowest 10^-8 M concentration. The peptides were incubated for 48 h and the cell concentration was assayed by using the sulforhodamine B assay25 and optical density measurements. The growth inhibition (GI50) value24, measures the growth inhibitory power of the drug agent. The GI50 value is the concentration of the test drug for which the condition in Eq. S1 is met, where T is the optical density of the test well after a 48-h exposure to the peptide, T0 the optical density before applying the peptide drug and C the control optical density of a well where no peptide was applied.

The subject of data set [2] is noncancer HDMEC primary cells (human dermal microvascular endothelial cells). Briefly: Cell viability assay (MTT). The format is cell-based. The note with it: Table S2; noncancer primary cells; MTT, 24 h; mean ± sd; N = 2 independent measurements with six technical replicates each (Figs S6-S8). As to the method: (§1) 10% fetal bovine serum and 1% penicillin-streptomycin (Thermo Fisher Scientific, Waltham, MA, USA). The cultures were kept at 37°C in a 5% CO2 atmosphere incubator (Thermo Fisher Scientific, Waltham, MA, USA) and split every two to three days to new culture flasks. Cells no older than 20 passages were used for experiments.
(§2) For splitting, the cell culture media was aspirated, the cells were washed with 0.01 M phosphate buffered saline (PBS, Gibco, Thermo Fisher Scientific, Waltham, MA, USA) and trypsin-EDTA (trypsin - ethylene diamine tetraacetic acid, Fisher scientific, UK) was added to the cell layer to detach them from the flask surface. After incubation for 2 min at 37°C, cells were resuspended with an equal volume of DMEM media and centrifuged at 310 g for 5 min at 4°C. After removal of the supernatant the cells were resuspended in DMEM cell media and split into new cell culture flasks at a 1/3 to 1/5 ratio.
(§3) Determination of the anticancer peptides half effective concentration (EC50) was performed by a 3-(4,5-dimethylthiazol-2-yl)-2,5-diphenyltetrazolium bromide (MTT) assay, as described elsewhere21. Briefly, […] were seeded in each well of a 96-well plate and left to adhere and […]
(§4) sulfoxide (DMSO, Fisher Scientific, UK) at an intermediate concentration of 1 mM. The peptides were then diluted in a 2-fold dilution series starting at 100 μM with DMEM culture media. Cells were incubated with the peptide solutions for 24 h. After this time, the cell media was removed and the cells were incubated for 1 h with a 0.5 mg mL−1 MTT solution to allow enough time for formazan crystal formation (Sigma Aldrich, Steinheim, Germany). The supernatant was removed and 100 μL of DMSO were added into each well to resuspend the formazan crystals.
(§5) After manually shaking the plates to completely dissolve the crystals, the absorbance was measured at 540 nm in a Tecan Infinity M1000 spectrophotometer. The cell viability was determined based on the quantification of the color intensity in each culture well, considering the absorbance obtained by the control media without peptides as a 100% survival. The resultant sigmoidal curves were analyzed with the drc22 R package using a log-logistic model

Data set [3] deals with MCF7 breast adenocarcinoma cell line. As to the kind of experiment: Cell viability assay (MTT). It counts as cell-based, human. The note with it: Table S2, 24 h, mean ± sd, N = 2 independent measurements with six technical replicates each (Figs S6-S8). As to the method:
as §1, §2, §3, §4, §5

The subject of data set [4] is A549 lung adenocarcinoma cell line. As to the kind of experiment: Cell viability assay (MTT). It counts as cell-based, human. The settings on record: Table S2; MTT, 24 h; mean ± sd; N = 2 independent measurements with six technical replicates each (Figs S6-S8); read-out: A549 EC50 /µM. As to the method: as §1, §2, §3, §4, §5

Peptide text beside a SMILES is read from it.

As for `CC[C@H](C)[C@H](NC(=O)[C@H](CCCCN)NC(=O)[C@H](CCCCN)NC(=O)[C@@H](NC(=O)[C@@H](NC(=O)[C@@H](N)CCC(N)=O)C(C)C)C(C)C)C(=O)N[C@@H](CCCNC(=N)N)C(=O)N[C@H](C(=O)N[C@@H](Cc1c[nH]c2ccccc12)C(=O)N[C@@H](Cc1ccc(O)cc1)C(=O)N[C@@H](Cc1c[nH]cn1)C(=O)N[C@@H](CCCCN)C(=O)N[C@@H](C)C(=O)N[C@@H](Cc1c[nH]c2ccccc12)C(=O)N[C@@H](Cc1c[nH]cn1)C(=O)N[C@H](C(=O)N[C@@H](CC(C)C)C(=O)NCC(=O)N[C@@H](CCCCN)C(=O)N[C@H](C(N)=O)C(C)C)C(C)C)[C@@H](C)O` [Off2.2.1] (H-QVVKKIRTWYHKAWHVLGKV-NH2), the “Eryhtr. HC50 /µM” value in data set [1] is over 200 µM. For the same molecule, the EC50 is 96 ± 7 µM in data set [2], 76 ± 15 µM in data set [3] and over 100 µM in data set [4].

On to `CC[C@H](C)[C@H](NC(=O)[C@H](CC(C)C)NC(=O)[C@@H](N)CCC(N)=O)C(=O)N[C@@H](Cc1c[nH]cn1)C(=O)N[C@@H](CCCCN)C(=O)N[C@H](C(=O)N[C@@H](CCCNC(=N)N)C(=O)N[C@H](C(=O)N[C@@H](Cc1c[nH]c2ccccc12)C(=O)N[C@@H](Cc1ccc(O)cc1)C(=O)N[C@@H](CCCNC(=N)N)C(=O)N[C@@H](CCCCN)C(=O)N[C@@H](C)C(=O)N[C@@H](Cc1c[nH]c2ccccc12)C(=O)N[C@@H](Cc1c[nH]cn1)C(=O)N[C@H](C(=O)N[C@@H](CC(C)C)C(=O)NCC(=O)N[C@@H](CCCCN)C(=O)N[C@H](C(N)=O)C(C)C)C(C)C)[C@@H](C)O)[C@@H](C)CC` [Off2.2.2] (H-QLIHKIRTWYRKAWHVLGKV-NH2), for which, in data set [1], the “Eryhtr. HC50 /µM” value was over 200 µM. Further, the EC50 in data set [2] was found to be 28 ± 3 µM; in data set [3], 13 ± 1 µM; in data set [4], 20 ± 2 µM.

For the molecule `CC[C@H](C)[C@H](NC(=O)[C@H](Cc1c[nH]cn1)NC(=O)[C@H](Cc1c[nH]c2ccccc12)NC(=O)[C@H](C)NC(=O)[C@H](CCCCN)NC(=O)[C@H](CCCNC(=N)N)NC(=O)[C@H](CC(C)C)NC(=O)[C@H](Cc1c[nH]c2ccccc12)NC(=O)[C@@H](NC(=O)[C@H](CCCNC(=N)N)NC(=O)[C@H](Cc1c[nH]c2ccccc12)NC(=O)[C@H](CCCCN)NC(=O)[C@H](CCCCN)NC(=O)[C@H](CC(C)C)NC(=O)[C@H](CC(C)C)NC(=O)[C@@H](N)Cc1c[nH]cn1)[C@@H](C)O)C(=O)N[C@H](C(=O)NCC(=O)N[C@@H](CCCCN)C(=O)N[C@H](C(N)=O)C(C)C)C(C)C` [Off2.2.3] (H-HLLKKWRTWLRKAWHIVGKV-NH2), in data set [1], the “Eryhtr. HC50 /µM” value is recorded as 59 ± 6 µM. Besides, the EC50 in data set [2] is 6.1 ± 0.5 µM; in data set [3] it was 7 ± 1 µM; in data set [4], 9 ± 1 µM.

As to `CC[C@H](C)[C@H](NC(=O)[C@@H](NC(=O)[C@H](Cc1c[nH]cn1)NC(=O)[C@H](Cc1ccccc1)NC(=O)[C@H](C)NC(=O)[C@H](CCCCN)NC(=O)[C@H](CCCNC(=N)N)NC(=O)[C@H](Cc1ccc(O)cc1)NC(=O)[C@H](Cc1c[nH]c2ccccc12)NC(=O)[C@@H](NC(=O)[C@H](CCCNC(=N)N)NC(=O)[C@@H](NC(=O)[C@H](CCCCN)NC(=O)[C@H](CCCCN)NC(=O)[C@H](CC(C)C)NC(=O)[C@@H](NC(=O)[C@@H](N)CCC(N)=O)C(C)C)C(C)C)[C@@H](C)O)C(C)C)C(=O)NCC(=O)N[C@@H](CCCCN)C(=O)N[C@H](C(N)=O)C(C)C` [Off2.2.4] (H-QVLKKVRTWYRKAFHVIGKV-NH2), the “Eryhtr. HC50 /µM” value in data set [1] is on record as over 200 µM. Further, the results for the EC50 in data set [2], in data set [3] and in data set [4] were over 100 µM, 68 ± 5 µM and over 100 µM, respectively.

For the molecule `CC(C)C[C@H](NC(=O)[C@H](Cc1c[nH]cn1)NC(=O)[C@H](Cc1c[nH]c2ccccc12)NC(=O)[C@H](C)NC(=O)[C@H](CCCCN)NC(=O)[C@H](CCCNC(=N)N)NC(=O)[C@H](Cc1ccc(O)cc1)NC(=O)[C@H](Cc1c[nH]c2ccccc12)NC(=O)[C@@H](NC(=O)[C@H](CCCNC(=N)N)NC(=O)[C@@H](NC(=O)[C@H](CCCCN)NC(=O)[C@H](CCCCN)NC(=O)[C@H](CC(C)C)NC(=O)[C@H](CC(C)C)NC(=O)[C@@H](N)CCC(N)=O)C(C)C)[C@@H](C)O)C(=O)N[C@@H](Cc1ccc(O)cc1)C(=O)NCC(=O)N[C@@H](CCCCN)C(=O)N[C@H](C(N)=O)C(C)C` [Off2.2.5] (H-QLLKKVRTWYRKAWHLYGKV-NH2), the “Eryhtr. HC50 /µM” value in data set [1] is listed as over 200 µM. In addition, the EC50 in data set [2] is 27.2 ± 0.5 µM; in data set [3], 16 ± 2 µM; in data set [4], 29.3 ± 0.9 µM.

In the case of `CC[C@H](C)[C@H](NC(=O)[C@H](CC(C)C)NC(=O)[C@@H](N)CCC(N)=O)C(=O)N[C@@H](CCCCN)C(=O)N[C@@H](CCCCN)C(=O)N[C@@H](CC(C)C)C(=O)N[C@@H](CCCNC(=N)N)C(=O)N[C@H](C(=O)N[C@@H](Cc1c[nH]c2ccccc12)C(=O)N[C@@H](Cc1ccc(O)cc1)C(=O)N[C@@H](CCCNC(=N)N)C(=O)N[C@@H](CCCCN)C(=O)N[C@@H](C)C(=O)N[C@@H](Cc1c[nH]c2ccccc12)C(=O)N[C@@H](Cc1c[nH]cn1)C(=O)N[C@H](C(=O)N[C@@H](CC(C)C)C(=O)NCC(=O)N[C@@H](CCCCN)C(=O)N[C@@H](CC(C)C)C(N)=O)C(C)C)[C@@H](C)O` [Off2.2.6] (H-QLIKKLRTWYRKAWHVLGKL-NH2), the “Eryhtr. HC50 /µM” value in data set [1] is reported as over 200 µM. In addition, the EC50 in data set [2] stood at 9 ± 1 µM; in data set [3], 6.5 ± 0.2 µM; in data set [4] it was 10.6 ± 0.8 µM.

In the case of `CC[C@H](C)[C@H](NC(=O)[C@H](CCCCN)NC(=O)CNC(=O)[C@@H](NC(=O)[C@H](CC(C)C)NC(=O)[C@H](Cc1c[nH]cn1)NC(=O)[C@H](Cc1c[nH]c2ccccc12)NC(=O)[C@H](C)NC(=O)[C@H](CCCCN)NC(=O)[C@H](CCCCN)NC(=O)[C@@H](NC(=O)[C@H](Cc1c[nH]c2ccccc12)NC(=O)[C@@H](NC(=O)[C@H](CCCNC(=N)N)NC(=O)[C@@H](NC(=O)[C@H](CCCCN)NC(=O)[C@H](CCCCN)NC(=O)[C@@H](NC(=O)[C@@H](NC(=O)[C@@H](N)CCC(N)=O)[C@@H](C)CC)[C@@H](C)CC)C(C)C)[C@@H](C)O)[C@@H](C)CC)[C@@H](C)CC)C(N)=O` [Off2.2.7] (H-QIIKKVRTWIKKAWHLIGKI-NH2), in data set [1], the “Eryhtr. HC50 /µM” value is recorded as over 100 µM. In addition, the values for the EC50 in data set [2], in data set [3] and in data set [4] were 17 ± 1 µM, 8 ± 1 µM and 12 ± 2 µM, respectively.

In the case of `CC[C@H](C)[C@H](NC(=O)[C@H](Cc1c[nH]cn1)NC(=O)[C@H](Cc1c[nH]c2ccccc12)NC(=O)[C@H](C)NC(=O)[C@H](CCCNC(=N)N)NC(=O)[C@H](CCCNC(=N)N)NC(=O)[C@H](CC(C)C)NC(=O)[C@H](Cc1c[nH]c2ccccc12)NC(=O)[C@@H](NC(=O)[C@H](CCCNC(=N)N)NC(=O)[C@@H](NC(=O)[C@H](CCCNC(=N)N)NC(=O)[C@H](CCCNC(=N)N)NC(=O)[C@H](CC(C)C)NC(=O)[C@H](Cc1ccc(O)cc1)NC(=O)[C@@H](N)CCC(N)=O)C(C)C)[C@@H](C)O)C(=O)N[C@@H](CC(C)C)C(=O)NCC(=O)N[C@@H](CCCCN)C(=O)N[C@H](C(N)=O)C(C)C` [Off2.2.8] (H-QYLRRVRTWLRRAWHILGKV-NH2), in data set [1], the “Eryhtr. HC50 /µM” value is 21 ± 1 µM. Besides, the values for the EC50 in data set [2], in data set [3] and in data set [4] were 10.3 ± 0.3 µM, 11 ± 0.2 µM and 16.5 ± 0.2 µM, respectively.
